Results as given in ChEMBL document CHEMBL2331213, “A flexible approach to 1,4-di-substituted 2-aminoimidazoles that inhibit and disperse biofilms and potentiate the effects of β-lactams against multi-drug resistant bacteria” (Eur J Med Chem, 2013).

Experiments:
Acinetobacter baumannii [1] = assay: Antibacterial activity against multidrug-resistant Acinetobacter baumannii ATCC BAA-1605 assessed as growth inhibition by broth microdilution method; format: functional
Staphylococcus aureus [2] = assay: Antibacterial activity against methicillin-resistant Staphylococcus aureus ATCC BAA-44 assessed as inhibition of biofilm growth after 24 hrs by crystal violet reporter assay; format: functional, organism-based; settings: ATCC BAA-44, 24 h
Acinetobacter baumannii [3] = assay: Antibacterial activity against multidrug-resistant Acinetobacter baumannii ATCC BAA-1605 assessed as inhibition of biofilm growth after 24 hrs by crystal violet reporter assay; format: functional, organism-based
Staphylococcus aureus [4] = assay: Antibacterial activity against methicillin-resistant Staphylococcus aureus ATCC BAA-44 assessed as growth inhibition by broth microdilution method; format: functional
Staphylococcus aureus [5] = assay: Antibacterial activity against methicillin-resistant Staphylococcus aureus ATCC BAA-44 assessed as reduction of oxacillin MIC at 25% MIC by broth microdilution method relative to oxacillin-treated control; format: functional
Staphylococcus aureus [6] = assay: Antibacterial activity against methicillin-resistant Staphylococcus aureus ATCC BAA-44 assessed as dispersion of preformed biofilm after 24 hrs by crystal violet reporter assay; format: functional, organism-based; settings: ATCC BAA-44, 24 h
[7] = Acinetobacter baumannii, ATCC BAA-1605, 24 h, read-out: IC50

CCCCCc1ccc(C(=O)NCCn2cc(CCCCCc3cn(CC(C)C)c(N)n3)nn2)cc1.Cl
MIC (Acinetobacter baumannii [1]): 200 µM | IC50 (Staphylococcus aureus [2]): 24 µM | IC50 (Acinetobacter baumannii [3]; [7]): 98.6 µM | MIC (Staphylococcus aureus [4]): 50 µM | fold change (FC) (Staphylococcus aureus [5]): 4

CCCCCc1ccc(C(=O)NCCn2cc(CCCCCc3cn(CCc4ccccc4)c(N)n3)nn2)cc1.Cl
MIC (Acinetobacter baumannii [1]): 100 µM | IC50 (Staphylococcus aureus [2]): 9.9 µM | IC50 (Acinetobacter baumannii [3]; [7]): 39.2 µM | MIC (Staphylococcus aureus [4]): 25 µM | fold change (FC) (Staphylococcus aureus [5]): 0 | EC50 (Staphylococcus aureus [6]): 33 µM

CCCCCc1ccc(C(=O)NCCn2cc(CCCCCc3cn(C4CCCC4)c(N)n3)nn2)cc1.Cl
MIC (Acinetobacter baumannii [1]): 100 µM | IC50 (Staphylococcus aureus [2]): 9.01 µM | IC50 (Acinetobacter baumannii [3]; [7]): 33.7 µM | MIC (Staphylococcus aureus [4]): 25 µM | fold change (FC) (Staphylococcus aureus [5]): 2 | EC50 (Staphylococcus aureus [6]): 34.5 µM

CCCCCc1ccc(C(=O)NCCn2cc(CCCCCc3cn(C4CC4)c(N)n3)nn2)cc1.Cl
MIC (Acinetobacter baumannii [1]): > 200 µM | IC50 (Staphylococcus aureus [2]): > 100 µM | IC50 (Acinetobacter baumannii [3]): ND(toxic) | MIC (Staphylococcus aureus [4]): 100 µM | fold change (FC) (Staphylococcus aureus [5]): 2

CCCCCc1ccc(C(=O)NCCn2cc(CCCCCc3cn(CCCCC)c(N)n3)nn2)cc1.Cl
MIC (Acinetobacter baumannii [1]): 100 µM | IC50 (Staphylococcus aureus [2]): 4.14 µM | IC50 (Acinetobacter baumannii [3]; [7]): 31.4 µM | MIC (Staphylococcus aureus [4]): 12.5 µM | fold change (FC) (Staphylococcus aureus [5]): 0 | EC50 (Staphylococcus aureus [6]): 45.1 µM

C=CCn1cc(CCCCCc2cn(CCNC(=O)c3ccc(CCCCC)cc3)nn2)nc1N.Cl
MIC (Acinetobacter baumannii [1]): 200 µM | IC50 (Staphylococcus aureus [2]): 13.2 µM | IC50 (Acinetobacter baumannii [3]): ND(toxic) | MIC (Staphylococcus aureus [4]): 50 µM | fold change (FC) (Staphylococcus aureus [5]): 2

CCCCCc1ccc(C(=O)NCCn2cc(CCCCCc3cn(C(C)C)c(N)n3)nn2)cc1.Cl
MIC (Acinetobacter baumannii [1]): > 200 µM | IC50 (Staphylococcus aureus [2]): > 100 µM | IC50 (Acinetobacter baumannii [3]): ND(toxic) | MIC (Staphylococcus aureus [4]): 200 µM | fold change (FC) (Staphylococcus aureus [5]): 0

CCCCCCn1cc(CCCCCc2cn(CCNC(=O)c3ccc(CCCCC)cc3)nn2)nc1N.Cl
MIC (Acinetobacter baumannii [1]): 100 µM | IC50 (Staphylococcus aureus [2]): 6.2 µM | IC50 (Acinetobacter baumannii [3]; [7]): 26.2 µM | MIC (Staphylococcus aureus [4]): 12.5 µM | fold change (FC) (Staphylococcus aureus [5]): 0 | EC50 (Staphylococcus aureus [6]): 41 µM

CCCCCc1ccc(C(=O)NCCn2cc(CCCCCc3cn(-c4ccccc4)c(N)n3)nn2)cc1.Cl
MIC (Acinetobacter baumannii [1]): > 200 µM | IC50 (Staphylococcus aureus [2]): 25.1 µM | IC50 (Acinetobacter baumannii [3]; [7]): 49.8 µM | MIC (Staphylococcus aureus [4]): 25 µM | fold change (FC) (Staphylococcus aureus [5]): 0

CCCCCc1ccc(C(=O)NCCn2cc(CCCCCc3cn(Cc4ccccc4)c(N)n3)nn2)cc1.Cl
MIC (Acinetobacter baumannii [1]): 100 µM | IC50 (Staphylococcus aureus [2]): 7.16 µM | IC50 (Acinetobacter baumannii [3]; [7]): 33.9 µM | MIC (Staphylococcus aureus [4]): 12.5 µM | fold change (FC) (Staphylococcus aureus [5]): 0 | EC50 (Staphylococcus aureus [6]): 39.6 µM

CCCCCc1ccc(C(=O)NCCn2cc(CCCCCc3cn(CCCC)c(N)n3)nn2)cc1.Cl
MIC (Acinetobacter baumannii [1]): 100 µM | IC50 (Staphylococcus aureus [2]): 10.8 µM | IC50 (Acinetobacter baumannii [3]; [7]): 53.8 µM | MIC (Staphylococcus aureus [4]): 25 µM | fold change (FC) (Staphylococcus aureus [5]): 0

CCCCCc1ccc(C(=O)NCCn2cc(CCCCCc3cn(C4CCCCC4)c(N)n3)nn2)cc1.Cl
MIC (Acinetobacter baumannii [1]): 200 µM | IC50 (Staphylococcus aureus [2]): 18.7 µM | IC50 (Acinetobacter baumannii [3]): ND(toxic) | MIC (Staphylococcus aureus [4]): 25 µM | fold change (FC) (Staphylococcus aureus [5]): 2

CCCCCc1ccc(C(=O)NCCn2cc(CCCCCc3c[nH]c(N)n3)nn2)cc1.Cl
fold change (FC) (Staphylococcus aureus [5]): 4
